Data on 25 molecules can be found in BindingDB's records for doi:10.1016/j.bioorg.2016.07.005 (Hazara University, 2016).

One assay concerns the target Acetylcholinesterase (Tetronarce californica, UniProt P04058). The experiment in a line: Acetylcholinesterase Assay. Conditions: pH 7.7. How it is done: Total volume of the reaction mixture was 100 µL. It contained 60 µL Na2HPO4 buffer with concentration of 50 mM and pH 7.7. 10 µL test compound (0.5 mM well-1) was added, followed by the addition of 10 µL (0.005 unit well-1) enzyme. […] Then contents were pre-incubated for 10 min at 37 °C. The reaction was initiated by the addition of 10 µL of 0.5 mM well-1 substrate (acetylthiocholine iodide), followed by the addition of 10 µL DTNB (0.5 mM well-1). […] All experiments were carried out with their respective controls in triplicate.

The next assay deals with Cholinesterase (Homo sapiens, UniProt P06276). The experiment in a line: Butyrylcholinesterase Assay. Conditions: pH 7.7. The method, then:
Total volume of the reaction mixture was 100 µL containing 60 µL, Na2HPO4 buffer, 50 mM and pH 7.7. Ten µL test compound 0.5 mM well-1 was added followedby the addition of 10 µL (0.5 unit well-1) BChE (Sigma Inc.). […] The reaction was initiated by the addition of 10 µL of 0.5 mM well-1 substrate (butyrylthiocholine chloride). Followed by the addition of 10 µL DTNB, 0.5 mM well-1. […] All experiments were carried out with their respective controls in triplicate.

Acetylcholinesterase, sequence (P04058 whole entry): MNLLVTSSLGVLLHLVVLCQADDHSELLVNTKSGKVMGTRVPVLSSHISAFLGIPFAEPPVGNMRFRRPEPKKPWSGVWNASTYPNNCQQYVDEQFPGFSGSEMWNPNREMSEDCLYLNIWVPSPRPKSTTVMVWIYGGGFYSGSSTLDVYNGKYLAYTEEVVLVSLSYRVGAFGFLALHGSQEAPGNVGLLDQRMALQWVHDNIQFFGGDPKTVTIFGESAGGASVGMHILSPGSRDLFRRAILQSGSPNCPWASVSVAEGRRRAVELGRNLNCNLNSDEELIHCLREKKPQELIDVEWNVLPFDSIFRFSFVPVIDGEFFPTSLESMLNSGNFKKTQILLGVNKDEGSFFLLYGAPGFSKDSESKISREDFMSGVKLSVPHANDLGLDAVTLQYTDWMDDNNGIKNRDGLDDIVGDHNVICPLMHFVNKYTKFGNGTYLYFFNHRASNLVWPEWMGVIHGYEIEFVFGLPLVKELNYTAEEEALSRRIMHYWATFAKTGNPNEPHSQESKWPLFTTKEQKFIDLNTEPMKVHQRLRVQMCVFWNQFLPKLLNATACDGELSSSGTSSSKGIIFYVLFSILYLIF
Cholinesterase, sequence (P06276 whole entry): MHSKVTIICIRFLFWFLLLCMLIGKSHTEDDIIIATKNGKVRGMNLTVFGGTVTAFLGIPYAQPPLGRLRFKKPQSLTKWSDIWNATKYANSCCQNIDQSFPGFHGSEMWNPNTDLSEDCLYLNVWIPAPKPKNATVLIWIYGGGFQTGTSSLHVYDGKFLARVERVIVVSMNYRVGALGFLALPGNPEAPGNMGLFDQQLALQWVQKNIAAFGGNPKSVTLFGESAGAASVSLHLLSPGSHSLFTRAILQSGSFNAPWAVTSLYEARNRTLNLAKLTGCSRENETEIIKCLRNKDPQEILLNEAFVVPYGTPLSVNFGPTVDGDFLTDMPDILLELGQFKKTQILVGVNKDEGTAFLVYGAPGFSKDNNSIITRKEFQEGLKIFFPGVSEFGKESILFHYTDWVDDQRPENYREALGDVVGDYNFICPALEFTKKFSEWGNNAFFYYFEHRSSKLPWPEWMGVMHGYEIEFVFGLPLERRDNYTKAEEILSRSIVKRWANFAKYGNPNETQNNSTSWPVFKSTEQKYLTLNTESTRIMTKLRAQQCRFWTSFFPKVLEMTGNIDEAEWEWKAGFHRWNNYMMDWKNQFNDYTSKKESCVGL

One may read the IC50 as the concentration that gives 50% inhibition. In the case of `CCOc1ccccc1/C=N\NC(=O)c1ccccc1O` [N'-[(Z)-(2-ethoxyphenyl)methylidene]-2-hydroxybenzohydrazide (20)], the IC50 against Acetylcholinesterase was determined as 415 µM; at Cholinesterase it was 116 µM.

Molecule `COc1cccc(/C=N\NC(=O)c2ccccc2O)c1OC` [N'-[(Z)-(2,3-dimethoxyphenyl)methylidene]-2-hydroxybenzohydrazide (15)] came in with an IC50 against Cholinesterase of 61.6 µM.

As to `CCCCOc1ccc(/C=N\NC(=O)c2ccccc2O)cc1` [N0-[(Z)-(4-butoxyphenyl)methylidene]-2-hydroxybenzohydrazide (7)], the values for the IC50 against Acetylcholinesterase and on Cholinesterase were 15.4 µM and 41.8 µM, respectively.

Turning to `O=C(N/N=C\c1ccc(C(F)(F)F)cc1)c1ccccc1O` [2-Hydroxy-N'-{(Z)-[4-(trifluoromethyl)phenyl]methylidene} benzohydrazide (18)], the IC50 amounted to 48.5 µM on Acetylcholinesterase and 213 µM at Cholinesterase.

With `O=C(N/N=C\c1ccc(OCc2ccccc2)cc1)c1ccccc1O` [N'-{(Z)-[4-(benzyloxy)phenyl]methylidene}-2-hydroxybenzohydrazide (3)], the IC50 against Acetylcholinesterase came out at 8.12 µM; at Cholinesterase, 37.8 µM.

With `CSc1ccc(/C=N\NC(=O)c2ccccc2O)cc1` [2-Hydroxy-N'-{(Z)-[4-(methylsulfanyl)phenyl]methylidene} benzohydrazide (22)], on Acetylcholinesterase, half-maximal inhibition (IC50) required 436 µM.

At Acetylcholinesterase, `O=C(N/N=C\c1cccc(O)c1)c1ccccc1O` [2-Hydroxy-N'-[(Z)-(3-hydroxyphenyl)methylidene]benzohydrazide (27)] returned an IC50 of 355 µM.

Turning to `O=C(N/N=C\c1c2ccccc2cc2ccccc12)c1ccccc1O` [(Z)-N'-(anthracen-10-ylmethylene)-2-hydroxybenzohydrazide (10)], on Acetylcholinesterase, inhibition was half-maximal at 4.12 µM (IC50).

Take `COc1ccc(/C=N\NC(=O)c2ccccc2O)cc1Br` [N'-[(Z)-(3-bromo-4-methoxyphenyl)methylidene]-2-hydroxybenzohydrazide (17)]: the IC50 on Acetylcholinesterase amounted to 19.8 µM; at Cholinesterase, 38.4 µM.

On to `CCOc1ccc(/C=N\NC(=O)c2ccccc2O)cc1` [N'-[(Z)-(4-ethoxyphenyl)methylidene]-2-hydroxybenzohydrazide (8)], for which the IC50 against Acetylcholinesterase was 218 µM; on Cholinesterase, 116 µM.

In the case of `O=C(N/N=C\c1cccc(Br)c1)c1ccccc1O` [N'-[(Z)-(3-bromophenyl)methylidene]-2-hydroxybenzohydrazide (19)], the IC50 at Acetylcholinesterase was determined as 156 µM; against Cholinesterase it was 121 µM.

At Acetylcholinesterase, `O=C(N/N=C\c1ccc(F)c(Br)c1)c1ccccc1O` [N'-[(Z)-(3-bromo-4-fluorophenyl)methylidene]-2-hydroxybenzohydrazide (25)] gave an IC50 of 311 µM.

`O=C(N/N=C\c1ccc(O)cc1)c1ccccc1O` [2-Hydroxy-N'-[(Z)-(4-hydroxyphenyl)methylidene]benzohydrazide (28)] had an IC50 against Cholinesterase of 424 µM.

For `COc1cccc(OC)c1/C=N\NC(=O)c1ccccc1O` [N'-[(Z)-(2,6-dimethoxyphenyl)methylidene]-2-hydroxybenzohydrazide (2)], the IC50 stood at 461 µM against Acetylcholinesterase and 79.5 µM on Cholinesterase.

For `O=C(N/N=C\c1cccc(C(F)(F)F)c1)c1ccccc1O` [2-Hydroxy-N'-{(Z)-[3-(trifluoromethyl)phenyl]methylidene} benzohydrazide (14)], the IC50 against Acetylcholinesterase turned out to be 56.1 µM; at Cholinesterase, 112 µM.

In turn, `COc1ccc(/C=N\NC(=O)c2ccccc2O)cc1OCc1ccccc1` [N'-{(Z)-[3-(benzyloxy)-4-methoxyphenyl]methylidene}-2-hydroxybenzohydrazide (16)] showed an IC50 at Cholinesterase of 86.2 µM.

Consider `O=C(N/N=C\c1ccco1)c1ccccc1O` [N'-[(Z)-2-furylmethylidene]-2-hydroxybenzohydrazide (11)], for which the IC50 on Cholinesterase is 418 µM.

In turn, `COc1ccc(/C=N\NC(=O)c2ccccc2O)c(OC)c1` [N'-[(Z)-(2,4-dimethoxyphenyl)methylidene]-2-hydroxybenzohydrazide (9)] yielded an IC50 at Cholinesterase of 293 µM.

Consider `CC(C)c1ccc(/C=N\NC(=O)c2ccccc2O)cc1` [2-Hydroxy-N'-[(Z)-(4-isopropylphenyl)methylidene]benzohydrazide (12)], for which the figures for the IC50 on Acetylcholinesterase and against Cholinesterase were 39.8 µM and 71.8 µM, respectively.

For `O=C(N/N=C\c1cc(F)ccc1Br)c1ccccc1O` [N'-[(Z)-(2-bromo-5-fluorophenyl)methylidene]-2-hydroxybenzohydrazide (21)], the figures for the IC50 at Acetylcholinesterase and against Cholinesterase were 312 µM and 267 µM, respectively.

Turning to `O=C(N/N=C\c1ccc(Cl)cc1Cl)c1ccccc1O` [N'-[(Z)-(2,4-dichlorophenyl)methylidene]-2-hydroxybenzohydrazide (6)], the IC50 amounted to 18.1 µM against Acetylcholinesterase and 43.2 µM on Cholinesterase.

On to `CC(C)(C)c1ccc(/C=N\NC(=O)c2ccccc2O)cc1` [N'-{(Z)-[4-(tert-butyl)phenyl]methylidene}-2-hydroxybenzohydrazide (13)], for which the IC50 is 92.4 µM at Acetylcholinesterase and 6.51 µM against Cholinesterase.

`O=C(N/N=C\c1cccs1)c1ccccc1O` [2-Hydroxy-N'-[(Z)-2-thienylmethylidene]benzohydrazide (23)] gave an IC50 at Acetylcholinesterase of 430 µM.

As to `O=C(N/N=C\c1cc(Cl)cc(Cl)c1O)c1ccccc1O` [N'-[(Z)-(3,5-dichloro-2-hydroxyphenyl)methylidene]-2-hydroxybenzohydrazide (24)], the values for the IC50 at Acetylcholinesterase and at Cholinesterase were 8.41 µM and 9.22 µM, respectively.

For the molecule `O=C(N/N=C\c1ccc(Br)cc1F)c1ccccc1O` [N'-[(Z)-(4-bromo-2-fluorophenyl)methylidene]-2-hydroxybenzohydrazide (26)], the results for the IC50 against Acetylcholinesterase and on Cholinesterase were 369 µM and 452 µM, respectively.
